Data on 28 molecules can be found in patent US11760754B2, “Heterocyclic mitochondrial activity inhibitors and uses thereof” (UNIVERSITÉ DE MONTRÉAL, priority 2017, dated 2023).

As usually defined, the EC50 is the concentration at which the effect is half-maximal.

In one experiment the test system is MLL-AF9 cells. The experiment is described as follows: MLL-AF9 leukemia cell growth inhibition, dose-response viability assay (CellTiterGlo). The format is cell-based, murine. The following applies: Mus musculus, MLL-AF9, 120 h, read-out: MLL-AF9 EC50. Here is the method:
(§1) The potency of the compounds of Example 6 at inhibiting OCI-AML3 cell growth was tested using a procedure similar to that described for Mutritinib in Example 1. […] Murine MLL-AF9 leukemia cells (female cells) were generated by infection with VSV-G-pseudotyped MSCV MLL-AF9 IRES Puro (subcloned from a construct by Frédéric Barabé, Laval U, Quebec, QC, Canada).
(§2) Compounds were added to seeded cells in serial dilutions from 10 μM to 0.5 nM, in duplicates or quadruplicates.

The subject of the next experiment is OCI-AML3 cells. The experiment can be described thus: OCI-AML3 cell growth inhibition, dose-response viability assay (CellTiterGlo). In kind it is cell-based. The note with it: Homo sapiens, OCI-AML-3, 144 h, read-out: AML-3 EC50. Here is the method:
Cell dose-response viability assays. […] In the initial screen, compounds were added to seeded cells in serial dilutions (10 dilutions, 1:3, starting from […] 20 μM), in duplicates.
as §1, §2

In the case of `CC(C)NC(=O)OCCc1cn(CCCCc2ccc(OCc3coc(/C=C/c4ccc(C(F)(F)F)cc4)n3)cc2)nn1` [Compound 70, (E)-2-(1-(4-(4-((2-(4-(trifluoromethyl)styryl)oxazol-4-yl)methoxy)phenyl)butyl)-1H-1,2,3-triazol-4-yl)ethyl isopropylcarbamate], the EC50 with MLL-AF9 cells lay within 100 to 500 nM; in the experiment with OCI-AML3 cells, 500 to 1000 nM.
As to `FC(F)(F)c1ccc(/C=C/c2nc(COc3ccc(CCCn4ccnn4)cc3)co2)cc1` [Compound 50, (E)-4-((4-(3-(1H-1,2,3-triazol-1-yl)propyl)phenoxy)methyl)-2-(4-(trifluoromethyl)styryl)oxazole], the EC50 with MLL-AF9 cells is 100 to 500 nM; in the experiment on OCI-AML3 cells, 1000 to 10000 nM.
The like results for `CN(C)C(=O)OCCc1cn(CCCCc2ccc(OCc3coc(/C=C/c4ccc(C(F)(F)F)cc4)n3)cc2)nn1` [Compound 68, (E)-2-(1-(4-(4-((2-(4-(trifluoromethyl)styryl)oxazol-4-yl)methoxy)phenyl)butyl)-1H-1,2,3-triazol-4-yl)ethyl dimethylcarbamate] were, in that order, 100 to 500 nM and 500 to 1000 nM.
The like results for `FC(F)(F)c1ccc(-c2ccc(COc3ccc(CCCCn4ccnn4)cc3)cn2)cc1` [Compound 75] were, in that order, 1000 to 10000 nM and 1000 to 10000 nM.
Taken in the same sequence, the figures for `C(=C\c1nc(COc2ccc(CCCCn3ccnn3)cc2)co1)/c1ccncc1` [Compound 80, (E)-4-((4-(4-(1H-1,2,3-triazol-1-yl)butyl)phenoxy)methyl)-2-(2-(pyridin-4-yl)vinyl) oxazole] were 100 to 500 nM and 500 to 1000 nM.
As for `Fc1cc(C(F)(F)F)ccc1/C=C/c1nc(COc2ccc(CCCCn3ncnn3)cc2)co1` [Compound 110, (E)-4-((4-(4-(2H-tetrazol-2-yl)butyl)phenoxy)methyl)-2-(2-fluoro-4-(trifluoromethyl)styryl)oxazole], the EC50 with MLL-AF9 cells and in the experiment on OCI-AML3 cells was 1000 to 10000 nM throughout.
In the case of `CC(C)NC(=O)OCCc1cn(CCCCc2ccc(OCc3coc(/C=C/c4ccc(C(F)(F)F)cc4F)n3)cc2)nn1` [Compound 98, (E)-2-(1-(4-(4-((2-(2-fluoro-4-(trifluoromethyl)styryl)oxazol-4-yl)methoxy)phenyl)butyl)-1H-1,2,3-triazol-4-yl)ethyl isopropylcarbamate], the EC50 with MLL-AF9 cells fell in the range of 50 to 100 nM; with OCI-AML3 cells, 100 to 500 nM.
As to `O=[N+]([O-])c1ccc2cc(-c3nc(COc4ccc(CCCCn5ccnn5)cc4)co3)[nH]c2c1` [Compound 129, 4-((4-(4-(1H-1,2,3-triazol-1-yl)butyl)phenoxy)methyl)-2-(6-nitro-1H-indol-2-yl)oxazole], the EC50 with MLL-AF9 cells and with OCI-AML3 cells was less than 50 nM in each case.
Regarding `CN(C)C(=O)OCCc1nccn1CCCCc1ccc(OCc2coc(/C=C/c3ccc(C(F)(F)F)cc3)n2)cc1` [Compound 53, (E)-2-(1-(4-(4-((2-(4-(trifluoromethyl)styryl)oxazol-4-yl)methoxy)phenyl)butyl)-1H-imidazol-2-yl)ethyl dimethylcarbamate], the EC50 in the experiment with MLL-AF9 cells is 50 to 100 nM; in the experiment on OCI-AML3 cells it was 100 to 500 nM.
For the molecule `Fc1ccc(/C=C/c2nc(COc3ccc(CCCCn4ccnn4)cc3)co2)c(F)c1` [Compound 45, (E)-4-((4-(4-(1H-1,2,3-triazol-1-yl)butyl)phenoxy)methyl)-2-(2,4-difluorostyryl)oxazole], the EC50 in the experiment on MLL-AF9 cells lay within 100 to 500 nM; in the experiment with OCI-AML3 cells, 50 to 100 nM.
As for `Nc1ccc(/C=C/c2nc(COc3ccc(CCCCn4ccnn4)cc3)co2)c(F)c1` [Compound 66, (E)-4-(2-(4-((4-(4-(1H-1,2,3-triazol-1-yl)butyl)phenoxy)methyl)oxazol-2-yl)vinyl)-3-fluoroaniline], the EC50 in the experiment with MLL-AF9 cells and in the experiment on OCI-AML3 cells was 1000 to 10000 nM throughout.
As to `CNCc1cn(CCCCc2ccc(OCc3coc(/C=C/c4ccc(C(F)(F)F)cc4)n3)cc2)nn1` [Compound 7, (E)-N-methyl-1-(1-(4-(4-((2-(4-(trifluoromethyl)styryl)oxazol-4-yl)methoxy)phenyl)butyl)-1H-1,2,3-triazol-4-yl)methanamine], the EC50 in the experiment with MLL-AF9 cells lay within 500 to 1000 nM; with OCI-AML3 cells, 1000 to 10000 nM.
The like results for `O=[N+]([O-])c1ccc(/C=C/c2nc(COc3ccc(CCCCc4cccnc4)cc3)co2)c(F)c1` [Compound 103, (E)-2-(2-fluoro-4-nitrostyryl)-4-((4-(4-(pyridin-3-yl)butyl)phenoxy)methyl)oxazole] were, in that order, 100 to 500 nM and 100 to 500 nM.
With `C#CCNC(=O)CCCCc1cn(CCCCc2ccc(OCc3coc(/C=C/c4ccc(C(F)(F)F)cc4)n3)cc2)nn1` [Compound 12, (E)-N-(prop-2-yn-1-yl)-5-(1-(4-(4-((2-(4-(trifluoromethyl)styryl)oxazol-4-yl)methoxy)phenyl)butyl)-1H-1,2,3-triazol-4-yl)pentanamide], the EC50 in the experiment on MLL-AF9 cells lay in the range of 100 to 500 nM; in the experiment with OCI-AML3 cells it was 500 to 1000 nM.
The like results for `FC(F)(F)c1cccc(/C=C/c2nc(COc3ccc(CCCCn4ccnn4)cc3)co2)c1` [Compound 49, (E)-4-((4-(4-(1H-1,2,3-triazol-1-yl)butyl)phenoxy)methyl)-2-(3-(trifluoromethyl)styryl)oxazole] were, in that order, 1000 to 10000 nM and 1000 to 10000 nM.
`CN(C)c1cccc2c(S(=O)(=O)NCCNC(=O)c3ccc(/C=C/c4nc(COc5ccc(CCCCn6ccnn6)cc5)co4)cc3)cccc12` [Compound 72, (E)-4-(2-(4-((4-(4-(1H-1,2,3-triazol-1-yl)butyl)phenoxy)methyl)oxazol-2-yl)vinyl)-N-(2-(5-(dimethylamino)naphthalene-1-sulfonamido)ethyl)benzamide]: the 50% effective concentration (EC50) in the experiment on MLL-AF9 cells lay within 500 to 1000 nM; in the experiment on OCI-AML3 cells, 1000 to 10000 nM.
Taken in the same sequence, the figures for `COc1ccc(/C=C/c2nc(COc3ccc(CCCCn4ccnn4)cc3)co2)c(F)c1` [Compound 61, (E)-4-((4-(4-(1H-1,2,3-triazol-1-yl)butyl)phenoxy)methyl)-2-(2-fluoro-4-methoxystyryl)oxazole] were 100 to 500 nM and 100 to 500 nM.
On to `O=S1(=O)CCN(Cc2cn(CCCCc3ccc(OCc4coc(/C=C/c5ccc(C(F)(F)F)cc5F)n4)cc3)nn2)CC1` [Compound 71, (E)-4-((1-(4-(4-((2-(2-fluoro-4-(trifluoromethyl)styryl)oxazol-4-yl)methoxy)phenyl)butyl)-1H-1,2,3-triazol-4-yl)methyl)thiomorpholine 1,1-dioxide], for which the concentration for a half-maximal effect (EC50) was less than 50 nM in the experiment with MLL-AF9 cells and 100 to 500 nM with OCI-AML3 cells.
For the molecule `Fc1cc(F)c2cc(-c3nc(COc4ccc(CCCCn5ccnn5)cc4)co3)[nH]c2c1` [Compound 128, 4-((4-(4-(1H-1,2,3-triazol-1-yl)butyl)phenoxy)methyl)-2-(4,6-difluoro-1H-indol-2-yl)oxazole], the EC50 in the experiment on MLL-AF9 cells and in the experiment on OCI-AML3 cells was less than 50 nM in each case.
As to `CCOC(=O)c1cn(CCCCc2ccc(OCc3coc(/C=C/c4ccc(C(F)(F)F)cc4)n3)cc2)nn1` [Compound 114, ethyl (E)-1-(4-(4-((2-(4-(trifluoromethyl)styryl)oxazol-4-yl)methoxy)phenyl)butyl)-1H-1,2,3-triazole-4-carboxylate], the EC50 in the experiment with MLL-AF9 cells and with OCI-AML3 cells was 1000 to 10000 nM throughout.
Turning to `Fc1cc(C(F)(F)F)ccc1/C=C/c1nc(COc2ccc(CCCCc3ccccn3)cc2)co1` [Compound 140, (E)-2-(2-fluoro-4-(trifluoromethyl)styryl)-4-((4-(4-(pyridin-2-yl)butyl)phenoxy)methyl)oxazole], the EC50 was 1000 to 10000 nM in the experiment on MLL-AF9 cells and more than 10000 nM with OCI-AML3 cells.
Taken in the same sequence, the figures for `O=C(CCCn1ccnn1)c1ccc(OCc2coc(/C=C/c3ccc(C(F)(F)F)cc3F)n2)cc1` [Compound 22, (E)-1-(4-((2-(2-fluoro-4-(trifluoromethyl)styryl)oxazol-4-yl)methoxy)phenyl)-4-(1H-1,2,3-triazol-1-yl)butan-1-one] were 100 to 500 nM and 500 to 1000 nM.
Taken in the same sequence, the figures for `COC(=O)c1ccc(/C=C/c2nc(COc3ccc(CCCCn4ccnn4)cc3)co2)cc1` [Compound 58, (E)-methyl 4-(2-(4-((4-(4-(1H-1,2,3-triazol-1-yl)butyl)phenoxy)methyl)oxazol-2-yl)vinyl)benzoate] were 1000 to 10000 nM and 500 to 1000 nM.
Consider `O=C(CCCn1ccnn1)c1ccc(OCc2coc(/C=C/c3ccc([N+](=O)[O-])cc3F)n2)cc1` [Compound 24, (E)-1-(4-((2-(2-fluoro-4-nitrostyryl)oxazol-4-yl)methoxy)phenyl)-4-(1H-1,2,3-triazol-1-yl)butan-1-one], for which the EC50 in the experiment with MLL-AF9 cells is 500 to 1000 nM; in the experiment on OCI-AML3 cells it was 1000 to 10000 nM.
Taken in the same sequence, the figures for `FC(F)(F)c1ccccc1/C=C/c1nc(COc2ccc(CCCCn3ccnn3)cc2)co1` [Compound 44, (E)-4-((4-(4-(1H-1,2,3-triazol-1-YI)butyl)phenoxy)methyl)-2-(2-(trifluoromethyl)styryl)oxazole] were more than 10000 nM and 1000 to 10000 nM.
The like results for `FC(F)(F)c1ccc(C2CC2c2nc(COc3ccc(CCCCn4ccnn4)cc3)co2)cc1` (centres unmarked) [Compound 76, 4-((4-(4-(1H-1,2,3-triazol-1-yl)butyl)phenoxy)methyl)-2-(2-(4-(trifluoromethyl)phenyl)cyclopropyl)oxazole] were, in that order, 1000 to 10000 nM and 1000 to 10000 nM.
For the molecule `Fc1ccc2cc(-c3nc(COc4ccc(CCCCn5ccnn5)cc4)co3)sc2c1` [Compound 143, 4-((4-(4-(1H-1,2,3-triazol-1-yl)butyl)phenoxy)methyl)-2-(6-fluorobenzo[b]thiophen-2-yl)oxazole], the EC50 in the experiment with MLL-AF9 cells lay in the range of 100 to 500 nM; with OCI-AML3 cells, 1000 to 10000 nM.
Regarding `O=[N+]([O-])c1ccc(/C=C/c2nc(COc3ccc(C(O)CCCn4ccnn4)cc3)co2)c(F)c1` (centres unmarked) [Compound 25, (E)-1-(4-((2-(2-fluoro-4-nitrostyryl)oxazol-4-yl)methoxy)phenyl)-4-(1H-1,2,3-triazol-1-yl)butan-1-ol], the EC50 was in the range of 500 to 1000 nM with MLL-AF9 cells and 1000 to 10000 nM with OCI-AML3 cells.
